Marks after values point to notes of the source that are not given here.
Tests used:
hA1AR [1] = molecular target: T1, hA1AR (Homo sapiens, UniProt P30542); settings: for agonist character at the A1AR (full / partial agonist): cyclic AMP assay, hA1AR
T1 sequence (P30542 1-326): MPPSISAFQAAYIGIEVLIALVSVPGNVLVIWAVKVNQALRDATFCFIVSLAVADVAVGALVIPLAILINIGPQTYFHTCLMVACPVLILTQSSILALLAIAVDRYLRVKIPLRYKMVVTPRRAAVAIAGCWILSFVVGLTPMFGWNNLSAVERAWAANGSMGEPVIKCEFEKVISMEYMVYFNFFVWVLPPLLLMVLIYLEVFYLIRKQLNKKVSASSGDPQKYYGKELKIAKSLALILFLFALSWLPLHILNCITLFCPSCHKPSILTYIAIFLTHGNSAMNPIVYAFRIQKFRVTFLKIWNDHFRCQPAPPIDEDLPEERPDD

hA1AR [2] = molecular target: T1, hA1AR; assay: Radioligand binding at hA1AR, [3H]R-PIA, membranes of CHO cells; settings: human orthologue more potent than rat
A3AR = settings: read-out: Affinity Ki, A3; human unless noted; ref de Zwaart et al.[38]; cited from earlier work
rat A1AR = settings: ref Jacobson et al.[39]; cited from earlier work
rat A2AAR = settings: ref Jacobson et al.[39]; cited from earlier work
hA2AAR = hA2AAR (Homo sapiens, UniProt P29274); assay: Stimulation of cyclic AMP production in A2AAR-expressing CHO cells; format: cell-based; settings: cyclic AMP assay
Chain of hA2AAR (P29274 whole entry): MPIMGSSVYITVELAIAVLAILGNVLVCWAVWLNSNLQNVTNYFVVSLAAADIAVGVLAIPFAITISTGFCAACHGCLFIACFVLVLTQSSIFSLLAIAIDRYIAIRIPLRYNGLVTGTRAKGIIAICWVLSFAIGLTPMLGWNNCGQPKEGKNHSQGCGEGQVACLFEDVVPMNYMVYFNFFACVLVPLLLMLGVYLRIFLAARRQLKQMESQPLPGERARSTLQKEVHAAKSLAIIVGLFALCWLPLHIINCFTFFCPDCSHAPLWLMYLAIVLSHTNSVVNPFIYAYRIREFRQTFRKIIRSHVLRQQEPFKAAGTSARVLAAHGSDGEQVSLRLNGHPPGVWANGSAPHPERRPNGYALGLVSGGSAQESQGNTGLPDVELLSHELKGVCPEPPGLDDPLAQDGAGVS

Row | agonist character at the A1AR (full / partial agonist) (hA1AR [1]) | Structure (SMILES) | Ki (A3AR) | also measured
1 | full agonists | Nc1ncnc2c1ncn2[C@@H]1O[C@H](C(=O)NC2CC2)[C@@H](O)[C@H]1O [Compound 16, reference compound] |  | agonist character at the A2AAR (full agonist) (hA2AAR): full agonists
2 | partial agonist | Nc1ncnc2c1ncn2[C@@H]1O[C@H](C(=O)NC2CCC2)[C@@H](O)[C@H]1O [Compound 18] | 23 nM | agonist character at the A2AAR (full agonist) (hA2AAR): full agonists
3 | full agonists | Nc1ncnc2c1ncn2[C@@H]1O[C@H](C(=O)NC2CCCC2)[C@@H](O)[C@H]1O [Compound 22] | 32 nM | 

Second part, the molecule before the results:

Row | Structure (SMILES) | agonist character at the A1AR (full / partial agonist) (hA1AR [1]) | Ki (A3AR) | also measured
4 | CCNC(=O)[C@H]1O[C@@H](n2cnc3c(N)ncnc32)[C@H](O)[C@@H]1O [Compound 1, 5′-N-ethylcarboxamidoadenosine, reference compound] |  |  | Activation of A1, % of 1, 10 μM (hA1AR [1]; single point at 10 μM, effect of full agonist 1 = 100%, hA1AR CHO cells): 100 % of 1
5 | Nc1ncnc2c1ncn2[C@@H]1O[C@H](C(=O)NCC(F)(F)F)[C@@H](O)[C@H]1O [Compound 5] | partial agonists |  | difference between rat and human A1AR binding affinities (hA1AR [2]): approximately 100 fold
6 | Nc1ncnc2c1ncn2[C@@H]1O[C@H](C(=O)NCCCl)[C@@H](O)[C@H]1O [Compound 6, reference compound] |  | 332 nM | 
7 | NCCNC(=O)[C@H]1O[C@@H](n2cnc3c(N)ncnc32)[C@H](O)[C@@H]1O [Compound 11] |  |  | % inhibition, A1 (rat) (rat A1AR): (>10%, rat) ^e; % inhibition, A2A (rat) (rat A2AAR): > 10%
